Measured values taken from patent publication US7163946B2 (Ligand Pharmaceuticals Incorporated, priority 2002, dated 2007).
Where two headings read alike, the source gives them in different places.

Experiments:
Type in all cases: cell-based
[1] = molecular target: T1, human estrogen receptor (hER) (Homo sapiens, UniProt P03372); test: hER cotransfection assay (potency ratio to hPR); conditions: receptor-selectivity potency ratio, cotransfection assays
T1 sequence (P03372 1-595): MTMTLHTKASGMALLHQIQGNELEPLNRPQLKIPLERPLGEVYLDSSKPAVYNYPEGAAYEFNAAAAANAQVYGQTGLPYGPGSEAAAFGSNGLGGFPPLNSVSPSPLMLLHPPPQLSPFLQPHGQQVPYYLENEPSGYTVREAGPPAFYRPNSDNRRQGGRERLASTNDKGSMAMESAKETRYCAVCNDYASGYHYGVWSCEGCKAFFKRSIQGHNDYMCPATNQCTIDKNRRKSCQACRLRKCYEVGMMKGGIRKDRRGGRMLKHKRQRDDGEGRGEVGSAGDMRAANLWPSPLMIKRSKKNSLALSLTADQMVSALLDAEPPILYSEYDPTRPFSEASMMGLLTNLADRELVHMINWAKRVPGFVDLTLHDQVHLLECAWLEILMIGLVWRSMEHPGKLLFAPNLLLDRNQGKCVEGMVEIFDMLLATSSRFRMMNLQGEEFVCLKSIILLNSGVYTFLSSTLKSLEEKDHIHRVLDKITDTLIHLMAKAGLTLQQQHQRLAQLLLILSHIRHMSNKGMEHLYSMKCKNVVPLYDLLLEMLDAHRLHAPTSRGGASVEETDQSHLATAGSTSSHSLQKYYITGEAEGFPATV

hGR = molecular target: T2, hGR (Homo sapiens, UniProt P04150); test: hGR cotransfection assay (potency ratio to hPR); conditions: receptor-selectivity potency ratio, cotransfection assays
T2 sequence (P04150 1-777): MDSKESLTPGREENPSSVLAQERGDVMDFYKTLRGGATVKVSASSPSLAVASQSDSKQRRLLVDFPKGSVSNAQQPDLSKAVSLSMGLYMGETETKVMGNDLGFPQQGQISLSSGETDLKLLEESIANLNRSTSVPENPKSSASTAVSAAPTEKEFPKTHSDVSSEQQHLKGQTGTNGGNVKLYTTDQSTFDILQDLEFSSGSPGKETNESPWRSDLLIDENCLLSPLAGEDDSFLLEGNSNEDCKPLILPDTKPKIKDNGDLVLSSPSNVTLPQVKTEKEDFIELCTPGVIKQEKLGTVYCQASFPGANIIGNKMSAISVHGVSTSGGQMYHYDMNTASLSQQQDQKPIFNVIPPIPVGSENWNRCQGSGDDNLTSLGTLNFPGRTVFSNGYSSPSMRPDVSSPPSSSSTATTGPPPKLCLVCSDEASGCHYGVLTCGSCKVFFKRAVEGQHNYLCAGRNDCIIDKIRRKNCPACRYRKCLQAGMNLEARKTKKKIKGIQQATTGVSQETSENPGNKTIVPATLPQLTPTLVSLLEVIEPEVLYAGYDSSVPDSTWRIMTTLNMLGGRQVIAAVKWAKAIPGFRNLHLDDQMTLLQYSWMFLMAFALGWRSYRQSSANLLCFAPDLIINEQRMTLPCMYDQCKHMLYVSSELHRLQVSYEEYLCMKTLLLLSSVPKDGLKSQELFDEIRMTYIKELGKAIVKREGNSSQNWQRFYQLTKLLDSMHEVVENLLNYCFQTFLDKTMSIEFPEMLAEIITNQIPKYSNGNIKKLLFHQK

hPR [2] = molecular target: T3, hPR (Homo sapiens, UniProt P06401); test: hPR cotransfection assay in CV-1 cells, agonist mode; conditions: for Emax: CV-1, CV-1 cells, relative to maximal response of progesterone as 100%, read-out: hPR Agonist CV-1 Cells Eff. (%)
T3 sequence (P06401 1-933): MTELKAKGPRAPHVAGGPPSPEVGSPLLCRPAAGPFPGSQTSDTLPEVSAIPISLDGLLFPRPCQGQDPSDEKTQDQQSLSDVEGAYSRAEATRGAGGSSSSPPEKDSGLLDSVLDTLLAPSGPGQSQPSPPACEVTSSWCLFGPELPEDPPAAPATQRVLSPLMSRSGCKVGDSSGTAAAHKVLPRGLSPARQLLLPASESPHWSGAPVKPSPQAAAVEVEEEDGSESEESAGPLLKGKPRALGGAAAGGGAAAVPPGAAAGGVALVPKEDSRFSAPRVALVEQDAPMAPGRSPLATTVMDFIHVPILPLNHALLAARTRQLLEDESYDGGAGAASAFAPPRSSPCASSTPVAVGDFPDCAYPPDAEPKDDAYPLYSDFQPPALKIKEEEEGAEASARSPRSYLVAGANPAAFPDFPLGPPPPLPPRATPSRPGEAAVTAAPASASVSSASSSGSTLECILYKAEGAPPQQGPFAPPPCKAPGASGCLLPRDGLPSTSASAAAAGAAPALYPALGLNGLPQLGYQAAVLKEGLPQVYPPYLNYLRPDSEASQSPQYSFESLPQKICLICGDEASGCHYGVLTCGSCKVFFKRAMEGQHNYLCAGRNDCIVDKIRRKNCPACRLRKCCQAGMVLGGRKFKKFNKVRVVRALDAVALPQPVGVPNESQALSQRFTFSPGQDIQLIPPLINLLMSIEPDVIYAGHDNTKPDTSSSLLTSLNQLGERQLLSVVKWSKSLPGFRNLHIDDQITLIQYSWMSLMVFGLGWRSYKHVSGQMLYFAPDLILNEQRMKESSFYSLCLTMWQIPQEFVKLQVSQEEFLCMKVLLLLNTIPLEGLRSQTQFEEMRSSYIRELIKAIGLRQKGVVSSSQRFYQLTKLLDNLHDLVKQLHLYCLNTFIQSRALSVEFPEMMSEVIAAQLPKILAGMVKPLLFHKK

hPR [3] = molecular target: T3, hPR; test: hPR cotransfection assay in CV-1 cells, antagonist mode; conditions: for Emax: CV-1, CV-1 cells, maximal inhibition of reference agonist at EC50 concentration, read-out: hPR Antagonist CV-1 Cells Eff. (%); for IC50: CV-1 cells
[4] = CV-1 cells, read-out: hPR Agonist CV-1 Cells EC50
[5] = Tables 3 and 4, values without footnote, read-out: hPR agonist potencies (EC50 in nM) in the cotransfection assay

Row | Compound | hER EC50 or IC50/hPR EC50 [1] | hGR EC50 or IC50/hPR EC50 (hGR) | Emax (hPR [2]) [%] | EC50 (hPR [2]; [4]) [nM] | EC50 (hPR [2]; [5]) [nM] | Emax (hPR [3]) [%] | IC50 (hPR [3]) [µM]
1 | CC1=CC(C)(C)Nc2ccc3c(c21)/C(=C/c1ccccc1)Oc1c(F)cc(F)cc1-3 [Compound 10, 7,9-difluoro-5(Z)-benzylidene-1,2-dihydro-2,2,4-trimethyl-5H-chromeno[3,4-f]quinoline] | >1000 | 290 | 153 | 4.9 | 4.9 | < 20 | > 10
2 | CC1=CC(C)(C)Nc2ccc3c(c21)/C(=C/c1ccncc1)Oc1c(F)cc(F)cc1-3 [Compound 14, 7,9-difluoro-5(Z)-(4-picolylidene)-1,2-dihydro-2,2,4-trimethyl-5H-chromeno[3,4-f]quinoline] | >1000 | 365 | 103 | 7.4 | 7.4 | < 20 | > 10
3 | CC1=CC(C)(C)Nc2ccc3c(c21)/C(=C/c1cccc(F)c1)Oc1c(F)cc(F)cc1-3 [Compound 15, 7,9-difluoro-5(Z)-(3-fluorobenzylidene)-1,2-dihydro-2,2,4-trimethyl-5H-chromeno[3,4-f]quinoline] | >1000 | 30 | 191 | 3.8 | 3.8 | < 20 | > 10
4 | CC1=CC(C)(C)Nc2ccc3c(c21)/C(=C/c1cc(F)ccc1F)Oc1c(F)cc(F)cc1-3 [Compound 17, 7,9-difluoro-5(Z)-(2,5-difluorobenzylidene)-1,2-dihydro-2,2,4-trimethyl-5H-chromeno[3,4-f]quinoline] | >1000 | 66 | 169 | 2.9 | 2.9 | < 20 | > 10
5 | COc1ccccc1/C=C1\Oc2c(F)cc(F)cc2-c2ccc3c(c21)C(C)=CC(C)(C)N3 [Compound 18, 7,9-difluoro-5(Z)-(2-methoxybenzylidene)-1,2-dihydro-2,2,4-trimethyl-5H-chromeno[3,4-f]quinoline] | >1000 | 77 | 142 | 1.3 | 1.3 | < 20 | > 10
6 | CC1=CC(C)(C)Nc2ccc3c(c21)/C(=C/c1cc(F)ccc1C)Oc1c(F)cc(F)cc1-3 [Compound 19, 7,9-difluoro-5(Z)-(2-methyl-5-fluorobenzylidene)-1,2-dihydro-2,2,4-trimethyl-5H-chromeno[3,4-f]quinoline] | >1000 | 432 | 212 | 1.4 | 1.4 | < 20 | > 10

Results, then the compound that gave them:

Row | hER EC50 or IC50/hPR EC50 [1] | hGR EC50 or IC50/hPR EC50 (hGR) | Emax (hPR [2]) [%] | EC50 (hPR [2]; [4]) [nM] | EC50 (hPR [2]; [5]) [nM] | Emax (hPR [3]) [%] | IC50 (hPR [3]) [µM] | Compound
7 | >1000 | 10 | 85 | 3.5 | 3.5 | < 20 | > 10 | CC1=CC(C)(C)Nc2ccc3c(c21)C(c1ccccc1)Oc1c(F)cc(F)cc1-3 (racemic) [Compound 33, (±)-7,9-difluoro-5-phenyl-1,2-dihydro-2,2,4-trimethyl-5H-chromeno[3,4-f]quinoline]
8 | >1000 | >1000 | 114 | 1.2 | 1.2 | < 20 | > 10 | CC1=CC(C)(C)Nc2ccc3c(c21)C(c1cccc(C)c1)Oc1c(F)cc(F)cc1-3 (racemic) [Compound 34, (±)-7,9-difluoro-5-(3-methylphenyl)-1,2-dihydro-2,2,4-trimethyl-5H-chromeno[3,4-f]quinoline]
9 | >1000 | 54 | 89 | 1.24 | 1.24 | < 20 | > 10 | CC1=CC(C)(C)Nc2ccc3c(c21)C(c1ccc(Cl)c(C)c1)Oc1c(F)cc(F)cc1-3 (racemic) [Compound 37, (±)-7,9-difluoro-5-(4-chloro-3-methylphenyl)-1,2-dihydro-2,2,4-trimethyl-5H-chromeno[3,4-f]quinoline]
10 | >1000 | 105 | 146 | 1.87 | 1.87 | < 20 | > 10 | CC1=CC(C)(C)Nc2ccc3c(c21)C(c1cccc(Cl)c1)Oc1c(F)cc(F)cc1-3 (racemic) [Compound 41, (±)-7,9-difluoro-5-(3-chlorophenyl)-1,2-dihydro-2,2,4-trimethyl-5H-chromeno[3,4-f]quinoline]
11 | 685 | 8.8 | 154 | 2.3 |  | < 20 | > 10 | CC1=CC(C)(C)Nc2ccc3c(c21)C(c1cc2ccccc2s1)Oc1c(F)cc(F)cc1-3 (racemic) [Compound 63, (±)-7,9-difluoro-5-(benzo[b]thien-2-yl)-1,2-dihydro-2,2,4-trimethyl-5H-chromeno[3,4-f]quinoline]
12 | >1000 | >1000 | 89 | 0.7 |  | < 20 | > 10 | CC#CC1Oc2c(F)cc(F)cc2-c2ccc3c(c21)C(C)=CC(C)(C)N3 (racemic) [Compound 74, (±)-7,9-difluoro-5-(1-propynyl)-1,2-dihydro-2,2,4-trimethyl-5H-chromeno[3,4-f]quinoline]
13 | >1000 | 27 | 147 | 2.8 | 2.8 | < 20 | > 10 | CC1=CC(C)(C)Nc2ccc3c(c21)/C(=C/c1ccncc1C)Oc1c(F)cc(F)cc1-3 [Compound 20, 7,9-difluoro-5(Z)-(3-methyl-4-picolylidene)-1,2-dihydro-2,2,4-trimethyl-5H-chromeno[3,4-f]quinoline]
